Laboratory results reported in publication PMC3648489, “The sodium glucose cotransporter 2 inhibitor empagliflozin does not prolong QT interval in a thorough QT (TQT) study” (Cardiovascular Diabetology, 2013).
Where “and” joins values, the source holds several entries; their conditions need not be identical. Equal entries are not always repeated. Where two headings read alike, the source gives them in different places.

Columns and labels:
[1] = test system: healthy volunteers; assay: Thorough QT study: triplicate 12-lead ECG, QTcN and heart rate change from baseline; assay type: in vivo, human; details: for Difference from placebo in mean QTcN change from baseline, mean (SE): 1−4 hours after dosing; for QTcN mean change from baseline: ΔQTcN, adjusted mean (SE) / Difference from placebo: ΔΔHR, adjusted mean (SE) / HR mean change from baseline: ΔHR, adjusted mean (SE): 1-4 hours after administration; for Placebo-corrected MCfB in QTcN from all ECGs (90% CI): 0.5-24 hours after dosing; for Volunteers exceeding the QTcN threshold of 450 ms: 0.5-24 hours post-dose; for Difference from placebo: ΔΔQTcN (placebo-corrected MCfB in QTcN), adjusted mean: 1-4 hours after dosing, both placebo periods; for Maximum upper CI of placebo-corrected QTcN change from baseline over the time course: 90% CI; for Range of adjusted means of placebo-corrected QTcN change from baseline over the time course: time points 0.5-24 hours
Description: This thorough QT study (TQT) was a randomised, double-blind (moxifloxacin open), placebo-controlled crossover trial which included the following treatments: 25 mg and 200 mg empagliflozin (Boehringer Ingelheim Pharma GmbH & Co. KG); 400 mg open-label moxifloxacin (Avalox®; Bayer Vital, Leverkusen, Germany); and two placebo periods, with a washout of at least seven days between treatments. Trial medication was administered in the morning after an overnight fast.
ECG recordings were made at screening and at the end of the study as part of the safety evaluation. For the QTc evaluation, ECG recordings were made on study drug administration days (as ECG profiles) at 60, 50 and 40 minutes pre-dose (to derive the period-specific baseline), and at 0.5, 1, 1.5, 2, 2.5, 3, 4, 6, 8, 12 and 24 hours post-dose (last three time points omitted for moxifloxacin treatment). At each time point, triplicate standard 12-lead ECGs (I, II, III, aVR, aVL, aVF, V1–V6) of 10 seconds’ duration each were recorded after at least 5 minutes’ rest in the supine position using CardioSoft ECG recording machines (GE Healthcare, Freiburg, Germany). ECGs were sent to a central laboratory for evaluation of PR, QRS, RR and QT intervals. The semi-automatic approach used for determination of the fiducial points provided an automatic pre-assessment using a computer algorithm, which was reviewed by a specialist and adjusted if necessary. This review was performed blinded with regard to treatment and time point.
Data from four cardiac cycles per ECG were averaged. A population heart rate-corrected QT interval (QTcN) was derived by determining the exponent δ of the relationship: QT ~ (1000 / RR)^δ (where δ is the regression effect of the covariate) using a linear mixed model on log-transformed RR and QT data (measured in ms). Data from triplicate ECGs were then averaged for each time point.
The primary endpoint was the mean change from baseline (MCfB) in QTcN which was the mean QTcN derived from ECGs obtained 1–4 hours post-dose minus mean QTcN from baseline ECGs obtained pre-dose at each visit. Plasma concentrations of both empagliflozin and moxifloxacin were expected to reach peak levels within this three-hour window, ensuring the most relevant levels of drug exposure.
(§1) Secondary endpoints were the changes from period baseline in QTcN at any time point between 0.5–24 hours after dosing. In addition, the MCfB 2–4 hours after dosing (for assessment of the moxifloxacin effect), and the MCfB of all ECGs taken 0.5–24 hours after dosing were evaluated. Safety and tolerability were evaluated based on physical examination, vital signs, ECG, clinical laboratory tests, adverse events (AEs) and the physician’s assessment of global tolerability.
Briefly, the primary analysis compared changes in the primary endpoint (QTcN MCfB over 1–4 hours) using an analysis of covariance (ANCOVA) model with ‘sequence’, ‘period’ and ‘treatment’ as fixed effects, ‘subjects nested within sequences’ as a random effect, and ‘pre-dose baseline’ as a covariate. Analyses were performed using pair-wise comparisons of the trial treatments. The saturated repeated measurements crossover (RMC) model with unstructured covariance using pair-wise comparisons of the trial treatments was used to evaluate changes from baseline in QTcN at any time point between 0.5–24 hours after dosing. […] For descriptive statistics and the exposure-response analysis, the changes from baseline in QTcN of the placebo periods were averaged prior to the derivation of the placebo corrected MCfB.
In agreement with ICH E14, all tests were performed one-sided against the threshold level of regulatory concern of 10 ms with type-I error of α=5%, which is statistically equivalent to the calculation of two-sided 90% confidence intervals for the adjusted mean estimates. […]

[2] = test system: healthy volunteers; assay: Safety and tolerability (adverse events) in the TQT study; assay type: in vivo, human; details: human, in vivo
Description: as §1
Categorical endpoints such as AEs, cardiologic assessments and occurrence of ECG intervals beyond thresholds of regulatory concern (e.g. QTc >450 ms) were analysed based on incidence rates adjusted for the number of periods in which the treatment was given. Additionally, the analysis of such events in periods with any of the two doses of empagliflozin compared with the two placebo periods provides a direct comparison of incidence rates. All analyses were performed on the “full analysis set”, which comprised all recorded data of all subjects who received at least one dose of study treatment and had at least one ECG endpoint assessment at baseline and post treatment. No imputation for missing data was planned or performed.

[3] = Earlier single-dose pharmacokinetic study of empagliflozin in healthy volunteers; assay type: in vivo, human; details: 200 mg versus 25 mg; based on ref 10
[4] = test system: human ether-a-go-go related gene (hERG)-mediated potassium current; parameters: method as in unpublished data; details: transfected HEK293 cells; ref unpublished data; cited from earlier work
[5] = test system: guinea pig papillary muscle; parameters: method as in unpublished data; details: empagliflozin doses of ≥10 μM (so in the source); ref unpublished data; cited from earlier work
[6] = parameters: method as in PMID 27121669; details: cited from earlier work; for Cmax: read-out: Expected mean Cmax
[7] = single oral dose of 25 mg, healthy volunteers

## OC[C@H]1O[C@@H](c2ccc(Cl)c(Cc3ccc(O[C@H]4CCOC4)cc3)c2)[C@H](O)[C@@H](O)[C@@H]1O [Empagliflozin, empagliflozin]
[1]; 25 mg empagliflozin, primary analysis model with placebo period 1 only
  Difference from placebo in mean QTcN change from baseline, mean (SE): 0.2 (0.9) ms
[1]; 25 mg empagliflozin, primary analysis model with placebo period 2 only
  Difference from placebo in mean QTcN change from baseline, mean (SE): 0.6 (1.0) ms
[1]; 200 mg empagliflozin, primary analysis model with placebo period 1 only
  Difference from placebo in mean QTcN change from baseline, mean (SE): -0.5 (0.8) ms
[1]; 200 mg empagliflozin, primary analysis model with placebo period 2 only
  Difference from placebo in mean QTcN change from baseline, mean (SE): 0.1 (0.8) ms
[1]; both doses (25 mg and 200 mg), CIs include zero
  Slope estimates of exposure-response relationship between empagliflozin and heart rate: slope estimates close to zero
[1]; both empagliflozin doses (25 mg and 200 mg)
  Range of adjusted means of placebo-corrected heart rate change from baseline over the time course: -1.2 to 1.5 bpm
[1]; both empagliflozin doses (25 mg and 200 mg), all CIs within
  90% CIs of placebo-corrected heart rate change from baseline over the time course: -3 to 3 bpm
[1]; empagliflozin 25 mg
  Intercept of exposure-response analysis of placebo-corrected QTcN change from baseline: 0.35 ms
  Slope (estimate) of exposure-response analysis of placebo-corrected QTcN change from baseline: -0.0007 ms/(nmol/L)
  Placebo-corrected MCfB in QTcN from all ECGs (90% CI): 0.7 (90% CI: -0.4, 1.7) ms
  Difference from placebo: ΔΔHR, adjusted mean (SE): -0.9 (0.5) bpm
  HR mean change from baseline: ΔHR, adjusted mean (SE): -1.2 (0.5) bpm
  Difference from placebo: ΔΔQTcN (placebo-corrected MCfB in QTcN), adjusted mean: 0.6 (0.8) ms
  Maximum upper CI of placebo-corrected QTcN change from baseline over the time course: 4.7 ms
  Range of adjusted means of placebo-corrected QTcN change from baseline over the time course: -2.7 to 2.2 ms
[1]; empagliflozin 25 mg single oral dose, n=28
  QTcN mean change from baseline: ΔQTcN, adjusted mean (SE): 4.3 (1.1) ms
[1]; empagliflozin 25 mg, one volunteer
  Volunteers exceeding the QTcN threshold of 450 ms: 3.6%
[1]; empagliflozin 25 mg, listed as empagliflozin
  Difference from placebo: ΔΔQTcN (placebo-corrected MCfB in QTcN), adjusted mean: 0.6 (90% CI: -0.7, 1.9) ms and 0.6 (90% confidence interval [CI]: -0.7, 1.9) ms
[1]; empagliflozin 25 mg, at gMean Cmax 768 nmol/L
  Predicted value of placebo-corrected change from baseline QTcN at gMean of Cmax, estimate: -0.20 ms
[1]; empagliflozin 200 mg
  Intercept of exposure-response analysis of placebo-corrected QTcN change from baseline: -0.60 ms
  Slope (estimate) of exposure-response analysis of placebo-corrected QTcN change from baseline: -0.0000 ms/(nmol/L)
  Placebo-corrected MCfB in QTcN from all ECGs (90% CI): -0.2 (-1.2, 0.9) ms
  Difference from placebo: ΔΔHR, adjusted mean (SE): 0.0 (0.5) bpm
  HR mean change from baseline: ΔHR, adjusted mean (SE): -0.3 (0.5) bpm
  Difference from placebo: ΔΔQTcN (placebo-corrected MCfB in QTcN), adjusted mean: -0.2 (0.7) ms
  Maximum upper CI of placebo-corrected QTcN change from baseline over the time course: 3.5 ms
  Range of adjusted means of placebo-corrected QTcN change from baseline over the time course: -1.8 to 1.6 ms
[1]; empagliflozin 200 mg single oral dose, n=30
  QTcN mean change from baseline: ΔQTcN, adjusted mean (SE): 3.4 (0.9) ms
[1]; empagliflozin 200 mg, two volunteers
  Volunteers exceeding the QTcN threshold of 450 ms: 6.7%
[1]; empagliflozin 200 mg, listed as empagliflozin
  Difference from placebo: ΔΔQTcN (placebo-corrected MCfB in QTcN), adjusted mean: -0.2 (-1.4, 0.9) ms
[1]; empagliflozin 200 mg, at gMean Cmax 4860 nmol/L
  Predicted value of placebo-corrected change from baseline QTcN at gMean of Cmax, estimate: -0.64 ms
[2]
  Volunteers experiencing AEs: 23.3%
[3]
  Cmax ratio supratherapeutic dose versus therapeutic dose: ~ 7 fold
[4]
  Interaction with hERG-mediated potassium current: No relevant interactions
[5]
  Effect on action potential configuration or contractile function: no effect on action potentials
[6]
  Effect of food on drug exposure: no clinically relevant effects of food on drug exposure
[6]; doses ≥10 mg
  Terminal elimination half-life: 10 to 13 h
[6]; single doses of empagliflozin (≥800 mg as printed)
  Time to peak levels: 1.5 to 2.5 h
[6]; [7]
  Mean tmax: 2.2 h
  Cmax: 505 nM
[6]; single oral dose of 200 mg, healthy volunteers
  Cmax: 3490 nM
